Molecular target: T1, human TLR9 (Homo sapiens, UniProt Q9NR96)
T1 construct: host or cells: HEK-Blue cells
T1 sequence (Q9NR96 26-1032): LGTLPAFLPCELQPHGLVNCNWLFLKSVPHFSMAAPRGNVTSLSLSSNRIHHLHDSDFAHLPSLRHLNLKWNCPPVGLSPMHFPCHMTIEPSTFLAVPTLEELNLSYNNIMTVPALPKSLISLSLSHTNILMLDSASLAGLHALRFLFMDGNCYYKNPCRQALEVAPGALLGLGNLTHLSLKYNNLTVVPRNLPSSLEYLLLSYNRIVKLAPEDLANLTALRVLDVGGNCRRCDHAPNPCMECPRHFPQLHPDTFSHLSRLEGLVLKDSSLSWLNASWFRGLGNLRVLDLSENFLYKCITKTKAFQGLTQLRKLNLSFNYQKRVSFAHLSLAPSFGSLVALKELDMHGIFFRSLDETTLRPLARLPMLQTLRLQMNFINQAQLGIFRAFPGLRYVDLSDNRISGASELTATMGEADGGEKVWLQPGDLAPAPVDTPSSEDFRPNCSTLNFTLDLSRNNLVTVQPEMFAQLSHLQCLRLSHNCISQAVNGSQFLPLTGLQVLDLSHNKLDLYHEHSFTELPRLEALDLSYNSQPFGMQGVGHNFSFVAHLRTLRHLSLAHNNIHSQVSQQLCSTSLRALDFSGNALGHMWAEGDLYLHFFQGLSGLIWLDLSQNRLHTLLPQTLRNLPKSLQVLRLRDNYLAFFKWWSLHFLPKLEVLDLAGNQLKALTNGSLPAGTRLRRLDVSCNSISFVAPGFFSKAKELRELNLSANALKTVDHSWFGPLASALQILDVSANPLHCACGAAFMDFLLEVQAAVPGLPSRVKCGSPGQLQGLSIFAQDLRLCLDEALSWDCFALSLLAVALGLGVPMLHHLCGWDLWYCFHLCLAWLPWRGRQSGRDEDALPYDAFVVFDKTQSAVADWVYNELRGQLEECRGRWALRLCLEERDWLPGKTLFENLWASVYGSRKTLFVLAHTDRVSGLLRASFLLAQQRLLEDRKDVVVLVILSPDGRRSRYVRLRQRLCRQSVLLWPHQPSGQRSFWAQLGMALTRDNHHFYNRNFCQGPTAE
Test: TLR9 inhibition reporter assay (HEK-Blue SEAP)
Type: cell-based
Details: HEK-Blue cells overexpressing human TLR9, ODN2006 5 nM, 22 hour incubation
In short: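 Agonists used: gardiquimod 7.5 μM (TLR7), R848 15.9 μM (TLR8), ODN2006 5 nM (TLR9), added after 30 min room-temperature compound pre-treatment (0.05 nM–50 μM) of receptor-overexpressing HEK-Blue cells. SEAP reporter (NF-κB/AP-1 driven) read after 22 h at 37 °C; inhibition scaled between agonist+DMSO and reference-inhibitor wells.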

Row | Structure (SMILES) | IC50
1 | CCc1cc2c(cc1-c1cc(OC)c3ncnn3c1)[nH]c(=O)n2[C@@H]1CCCN(C(C)C)C1 [Example 172, (R)-6-ethyl-1-(1-isopropylpiperidin-3-yl)-5-(8-methoxy-[1,2,4]triazolo[1,5-a]pyridin-6-yl)-1,3-dihydro-2H-benzo[d]imidazol-2-one] | 6.83 µM
2 | CCc1cc2c(cc1-c1cc(OC)c3ncnn3c1)[nH]c(=O)n2[C@@H]1CCCN(C2CCOCC2)C1 [Example 184, (R)-6-ethyl-5-(8-methoxy-[1,2,4]triazolo[1,5-a]pyridin-6-yl)-1-(1-(tetrahydro-2H-pyran-4-yl)piperidin-3-yl)-1,3-dihydro-2H-benzo[d]imidazol-2-one] | 26.6 µM
3 | CCc1cc2c(cc1-c1cc(OC)c3ncnn3c1)[nH]c(=O)n2[C@@H]1CCCN(CC2CCC2)C1 [Example 181, (R)-1-(1-(cyclobutylmethyl)piperidin-3-yl)-6-ethyl-5-(8-methoxy-[1,2,4]triazolo[1,5-a]pyridin-6-yl)-1,3-dihydro-2H-benzo[d]imidazol-2-one] | 6.77 µM
4 | COc1cc(-c2cc3[nH]c(=O)n([C@@H]4CCCN(CC5CCCC5)C4)c3cc2C(C)C)cn2ncnc12 [Example 211, (R)-1-(1-(cyclopentylmethyl)piperidin-3-yl)-6-isopropyl-5-(8-methoxy-[1,2,4]triazolo[1,5-a]pyridin-6-yl)-1,3-dihydro-2H-benzo[d]imidazol-2-one] | 2.98 µM
5 | COc1cc(-c2cc3[nH]c(=O)n([C@@H]4CCCN(C5CCOC5)C4)c3cc2C(C)C)cn2ncnc12 (stereo partly drawn) [Example 217, 6-isopropyl-5-(8-methoxy-[1,2,4]triazolo[1,5-a]pyridin-6-yl)-1-((3R)-1-(tetrahydrofuran-3-yl)piperidin-3-yl)-1,3-dihydro-2H-benzo[d]imidazol-2-one] | > 50 µM
6 | COc1cc(-c2cc3[nH]c(=O)n([C@@H]4CCCN(C5CCCOC5)C4)c3cc2C(C)C)cn2ncnc12 (single isomer, unassigned) [Example 218] | 24.2 µM
7 | COc1cc(-c2cc3[nH]c(=O)n([C@@H]4CCCN(C5CCCOC5)C4)c3cc2C(C)C)cn2ncnc12 (single isomer, unassigned) [Example 219] | 25.1 µM
8 | CCc1cc2c(cc1-c1cc(OC)c3ncnn3c1)[nH]c(=O)n2[C@@H]1CCCN(CCOC)C1 [Example 227, (R)-6-ethyl-5-(8-methoxy-[1,2,4]triazolo[1,5-a]pyridin-6-yl)-1-(1-(2-methoxyethyl)piperidin-3-yl)-1,3-dihydro-2H-benzo[d]imidazol-2-one] | 15.2 µM
9 | Cc1c(-c2cc3[nH]c(=O)n([C@H]4CC[C@@H](NCC(C)(C)C)CC4)c3cc2C(C)C)cn2ncnc2c1C [Example 190, 5-(7,8-dimethyl-[1,2,4]triazolo[1,5-a]pyridin-6-yl)-6-isopropyl-1-((1s,4s)-4-(neopentylamino)cyclohexyl)-1,3-dihydro-2H-benzo[d]imidazol-2-one] | 5.05 µM
10 | COc1cc(-c2cc3[nH]c(=O)n(C4CCC(N5CCNC(=O)C5)CC4)c3cc2C(C)C)cn2ncnc12 (single isomer, unassigned) [Example 234, 6-isopropyl-5-(8-methoxy-[1,2,4]triazolo[1,5-a]pyridin-6-yl)-1-(4-(3-oxopiperazin-1-yl)cyclohexyl)-1,3-dihydro-2H-benzo[d]imidazol-2-one] | > 50 µM
11 | COc1cc(-c2cc3[nH]c(=O)n(C4CCC(N5CCC6(CC5)COC6)CC4)c3cc2C(C)C)cn2ncnc12 (stereo not drawn) [Example 240, 1-(4-(2-oxa-7-azaspiro[3.5]nonan-7-yl)cyclohexyl)-6-isopropyl-5-(8-methoxy-[1,2,4]triazolo[1,5-a]pyridin-6-yl)-1,3-dihydro-2H-benzo[d]imidazol-2-one] | 4.43 µM
12 | CCc1cc2c(cc1-c1cc(OC)c3ncnn3c1)[nH]c(=O)n2[C@@H]1CCCN(C2CCOC2)C1 (stereo partly drawn) [Example 213, 6-ethyl-5-(8-methoxy-[1,2,4]triazolo[1,5-a]pyridin-6-yl)-1-((3R)-1-(tetrahydrofuran-3-yl)piperidin-3-yl)-1,3-dihydro-2H-benzo[d]imidazol-2-one] | > 50 µM
13 | COc1cc(-c2cc3[nH]c(=O)n(C4CCC(N5CC6(CCOCC6)C5)CC4)c3cc2C(C)C)cn2ncnc12 (single isomer, unassigned) [Example 236, 1-(4-(7-oxa-2-azaspiro[3.5]nonan-2-yl)cyclohexyl)-6-isopropyl-5-(8-methoxy-[1,2,4]triazolo[1,5-a]pyridin-6-yl)-1,3-dihydro-2H-benzo[d]imidazol-2-one] | 2.59 µM
14 | COc1cc(-c2cc3[nH]c(=O)n([C@H]4CC[C@@H](NC(C)C)CC4)c3cc2C(C)C)cn2ncnc12 [Example 192, 6-isopropyl-1-((1s,4s)-4-(isopropylamino)cyclohexyl)-5-(8-methoxy-[1,2,4]triazolo[1,5-a]pyridin-6-yl)-1,3-dihydro-2H-benzo[d]imidazol-2-one] | 16.6 µM
15 | Cc1cc2c(cc1-c1cc(C)c3ncnn3c1)[nH]c(=O)n2[C@H]1CCCN(C(C)C)C1 [Example 13, (S)-1-(1-isopropylpiperidin-3-yl)-6-methyl-5-(8-methyl-[1,2,4]triazolo[1,5-a]pyridin-6-yl)-1,3-dihydro-2H-benzo[d]imidazol-2-one] | 4.42 µM
16 | CCc1cc2c(cc1-c1cc(OC)c3ncnn3c1)[nH]c(=O)n2[C@@H]1CCCN(CC2CCCC2)C1 [Example 209, (R)-1-(1-(cyclopentylmethyl)piperidin-3-yl)-6-ethyl-5-(8-methoxy-[1,2,4]triazolo[1,5-a]pyridin-6-yl)-1,3-dihydro-2H-benzo[d]imidazol-2-one] | 12.7 µM
17 | COc1cc(-c2cc3[nH]c(=O)n([C@H]4CC[C@@H](N(C)C)CC4)c3cc2C(C)C)cn2ncnc12 [Example 191, 1-((1s,4s)-4-(dimethylamino)cyclohexyl)-6-isopropyl-5-(8-methoxy-[1,2,4]triazolo[1,5-a]pyridin-6-yl)-1,3-dihydro-2H-benzo[d]imidazol-2-one] | 11.7 µM
18 | COc1cc(-c2cc3[nH]c(=O)n([C@H]4CC[C@H](N(CC5CC5)CC5CC5)CC4)c3cc2C(C)C)cn2ncnc12 [Example 206, 1-((1r,4s)-4-(bis(cyclopropylmethyl)amino)cyclohexyl)-6-isopropyl-5-(8-methoxy-[1,2,4]triazolo[1,5-a]pyridin-6-yl)-1,3-dihydro-2H-benzo[d]imidazol-2-one] | 6.53 µM
19 | COc1cc(-c2cc3[nH]c(=O)n([C@H]4CC[C@H](N(C)C)CC4)c3cc2C(C)C)cn2ncnc12 [Example 202, 1-((1r,4r)-4-(dimethylamino)cyclohexyl)-6-isopropyl-5-(8-methoxy-[1,2,4]triazolo[1,5-a]pyridin-6-yl)-1,3-dihydro-2H-benzo[d]imidazol-2-one] | 23 µM
20 | COc1cc(-c2cc3[nH]c(=O)n([C@H]4CC[C@H](NCC(C)C)CC4)c3cc2C(C)C)cn2ncnc12 [Example 204, 1-((1r,4s)-4-(isobutylamino)cyclohexyl)-6-isopropyl-5-(8-methoxy-[1,2,4]triazolo[1,5-a]pyridin-6-yl)-1,3-dihydro-2H-benzo[d]imidazol-2-one] | 11.7 µM
21 | Cc1c(-c2cc3[nH]c(=O)n([C@H]4CC[C@@H](NCC5CCOCC5)CC4)c3cc2C(C)C)cn2ncnc2c1C [Example 200, 5-(7,8-dimethyl-[1,2,4]triazolo[1,5-a]pyridin-6-yl)-6-isopropyl-1-((1s,4s)-4-(((tetrahydro-2H-pyran-4-yl)methyl)amino)cyclohexyl)-1,3-dihydro-2H-benzo[d]imidazol-2-one] | 7.05 µM
22 | CCN[C@H]1CC[C@@H](n2c(=O)[nH]c3cc(-c4cn5ncnc5c(C)c4C)c(C(C)C)cc32)CC1 [Example 189, 5-(7,8-dimethyl-[1,2,4]triazolo[1,5-a]pyridin-6-yl)-1-((1s,4s)-4-(ethylamino)cyclohexyl)-6-isopropyl-1,3-dihydro-2H-benzo[d]imidazol-2-one] | > 50 µM
23 | CCN1CCC[C@@H](n2c(=O)[nH]c3cc(-c4cc(C)c5ncnn5c4)c(C)cc32)C1 [Example 16, (R)-1-(1-ethylpiperidin-3-yl)-6-methyl-5-(8-methyl-[1,2,4]triazolo[1,5-a]pyridin-6-yl)-1,3-dihydro-2H-benzo[d]imidazol-2-one] | 8.95 µM
24 | CCc1cc2c(cc1-c1cc(OC)c3ncnn3c1)[nH]c(=O)n2[C@@H]1CCCN(CC(C)(C)C)C1 [Example 180, (R)-6-ethyl-5-(8-methoxy-[1,2,4]triazolo[1,5-a]pyridin-6-yl)-1-(1-neopentylpiperidin-3-yl)-1,3-dihydro-2H-benzo[d]imidazol-2-one] | 10.3 µM
